Experimental data as given in paper PMC9430380, “Oridonin Attenuates Burkholderia cenocepacia Virulence by Suppressing Quorum-Sensing Signaling” (Microbiology Spectrum, 2022).

Assays:
CepR = molecular target: T1, CepR (Burkholderia cenocepacia, UniProt B4EMD0); test: ITC with purified protein (one-site model); EMSA shows inhibited binding to bclACB promoter
T1 construct: HIS-CepR fusion protein (pDBHT2), cleaved with TEV protease

RqpR = molecular target: T2, RqpR; test: ITC with purified protein (one-site model); EMSA shows inhibited binding to rpfFBC and cepI promoters; parameters: species or system Burkholderia cenocepacia
T2 construct: HIS-RqpR fusion protein (pDBHT2), cleaved with TEV protease

T1 sequence (B4EMD0 entry or part of it): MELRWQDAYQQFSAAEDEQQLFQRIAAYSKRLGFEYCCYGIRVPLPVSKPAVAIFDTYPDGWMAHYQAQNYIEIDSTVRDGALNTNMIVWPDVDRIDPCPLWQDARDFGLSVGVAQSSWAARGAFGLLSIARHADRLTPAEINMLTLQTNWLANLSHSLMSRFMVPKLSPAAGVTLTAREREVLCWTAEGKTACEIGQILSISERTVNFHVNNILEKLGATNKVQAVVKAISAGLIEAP

## C=C1C(=O)[C@]23[C@H](O)[C@H]1CC[C@H]2[C@@]12CO[C@]3(O)[C@@H](O)[C@@H]1C(C)(C)CC[C@@H]2O [oridonin]
CepR
  Kd: 13.6 ± 0.826 µM
RqpR
  Kd: 8.28 ± 0.895 µM
